What was measured:
[1] = target: T1, human PASK (Homo sapiens, UniProt Q96RG2); assay: ADP-Glo kinase assay; assay type: biochemical; details: ADPGlo PASK kinase assay, 25 μM ATP, ZIPtide 25 μM
T1 construct: purchased ThermoFisher Scientific PR7013A
Experimental: The ADP-Glo™ kinase assay is a luminescent technology assay which measures the ADP formed from a kinase reaction. In this specific study, the kinase reactions consisted of the phosphorylation of the ZIPtide peptide substrate by human recombinant PASK. In a second step the kinase reaction is terminated and all the remaining ATP is depleted. In a final step the ADP is converted into ATP and this newly synthesized ATP is measured by using a luciferase/luciferin reaction. The generated light is measured using an Envision plate reader, wherein the luminescent signal obtained positively correlates with the kinase activity.
The test compounds are prepared as a serial dilution of 10 point dose responses with 1/5 dilution steps in 100% DMSO starting from 2 mM highest concentration, diluted 1/20 in water and 1 μL is transferred to the assay plates (PerkinElmer Inc., Cat #6007290).
1% DMSO and 10 μM staurosporine final concentrations are used respectively as negative and positive controls.
2 μL enzyme-substrate mixture is added to the assay plates.
The reaction is started by adding 2 μL diluted ATP on the assay plates immediately after addition of the enzyme-substrate mixture to the compound. Plates are centrifuged for a few seconds at 1000 rpm and gently shaken for 2 min followed by an incubation at RT for 120 min.
The reactions are stopped and the unconsumed ATP is depleted by adding 5 μL ADP-Glo Reagent (Promega, Cat #V912B) to the reaction. The plates are centrifuged for a few seconds at 1000 rpm and incubated at RT for 40 min (ATP depletion).
The ADP is converted to ATP and luciferase and luciferin is introduced to detect ATP by adding 10 μL Kinase Detection Reagent (Promega, Cat #V913B+V914B) to the reaction. The plates are centrifuged for a few seconds at 1000 rpm and incubated at RT for 30 min (ADP detection).
Luminescence is measured on an Envision plate reader (PerkinElmer Inc.).
Raw data are generated following the read-out performed on the Envision plate reader, used to calculate percentage inhibition (PIN) values and plotted to generate dose response curves and derive the average half maximal inhibitory concentrations (IC50) reported in Table VIII.

[2] = system: diabetic non human primates (NHPs) under a high-calorie diet (HCD); assay: Diabetic monkey model;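 further: male obese diabetic cynomolgus monkeys fed a high-fat, high-fructose diet, randomized into 4 groups, dosed with test compound for 8 weeks, then a 4-week washout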
Experimental: The aim of this assay is to determine the effect of a test compound on lipid metabolism and glucose handling in diabetic non human primates (NHPs) under a high-calorie diet (HCD) consisting of high-fat and high-fructose.
Male obese diabetic cynomolgus monkeys were selected based on their body weights, glucose, insulin levels, and blood lipid parameters. The inclusion criteria were the following: age ≤22 years; fasted plasma glucose between 120 and 300 mg/dL; triglycerides >125 mg/dL, and insulin >75 mIU/mL.
The animals are maintained at 20-23° C. and 40-70% humidity on a 12 h light/dark cycle (7 AM-7 PM). Water is provided ad libitum and the animals are fed twice daily with the high-calorie diet (HCD) enriched with seasonal fruits or vegetables.
After the baseline period, animals were randomized into 4 groups according to body weight, as well as their blood glucose and lipid parameters.
The following parameters were measured once per week during the 8 weeks of treatment and also during the 4 weeks of washout: • body weight • food consumption • blood chemistry (fasted blood glucose, plasma triglycerides, plasma total cholesterol, low density lipoproteins (LDL), and high density lipoproteins (HDL))
Oral glucose tolerance was measured in fasted animals before treatment initiation (baseline), at the end of the treatment period (week 8), and after 4 weeks of washout (week 12).

[3] = week 1, treatment, metformin 25 mg/kg b.i.d., Cpd 18 30 mg/kg q.d., p.o.
[4] = week 2, treatment, metformin 25 mg/kg b.i.d., Cpd 18 30 mg/kg q.d., p.o.
[5] = week 3, treatment, metformin 25 mg/kg b.i.d., Cpd 18 30 mg/kg q.d., p.o.
[6] = week 4, treatment, metformin 25 mg/kg b.i.d., Cpd 18 30 mg/kg q.d., p.o.
[7] = week 9, washout without treatment
[8] = week 10, washout without treatment
[9] = week 11, washout without treatment
[10] = week 12, washout without treatment

T1 sequence (Q96RG2 whole entry): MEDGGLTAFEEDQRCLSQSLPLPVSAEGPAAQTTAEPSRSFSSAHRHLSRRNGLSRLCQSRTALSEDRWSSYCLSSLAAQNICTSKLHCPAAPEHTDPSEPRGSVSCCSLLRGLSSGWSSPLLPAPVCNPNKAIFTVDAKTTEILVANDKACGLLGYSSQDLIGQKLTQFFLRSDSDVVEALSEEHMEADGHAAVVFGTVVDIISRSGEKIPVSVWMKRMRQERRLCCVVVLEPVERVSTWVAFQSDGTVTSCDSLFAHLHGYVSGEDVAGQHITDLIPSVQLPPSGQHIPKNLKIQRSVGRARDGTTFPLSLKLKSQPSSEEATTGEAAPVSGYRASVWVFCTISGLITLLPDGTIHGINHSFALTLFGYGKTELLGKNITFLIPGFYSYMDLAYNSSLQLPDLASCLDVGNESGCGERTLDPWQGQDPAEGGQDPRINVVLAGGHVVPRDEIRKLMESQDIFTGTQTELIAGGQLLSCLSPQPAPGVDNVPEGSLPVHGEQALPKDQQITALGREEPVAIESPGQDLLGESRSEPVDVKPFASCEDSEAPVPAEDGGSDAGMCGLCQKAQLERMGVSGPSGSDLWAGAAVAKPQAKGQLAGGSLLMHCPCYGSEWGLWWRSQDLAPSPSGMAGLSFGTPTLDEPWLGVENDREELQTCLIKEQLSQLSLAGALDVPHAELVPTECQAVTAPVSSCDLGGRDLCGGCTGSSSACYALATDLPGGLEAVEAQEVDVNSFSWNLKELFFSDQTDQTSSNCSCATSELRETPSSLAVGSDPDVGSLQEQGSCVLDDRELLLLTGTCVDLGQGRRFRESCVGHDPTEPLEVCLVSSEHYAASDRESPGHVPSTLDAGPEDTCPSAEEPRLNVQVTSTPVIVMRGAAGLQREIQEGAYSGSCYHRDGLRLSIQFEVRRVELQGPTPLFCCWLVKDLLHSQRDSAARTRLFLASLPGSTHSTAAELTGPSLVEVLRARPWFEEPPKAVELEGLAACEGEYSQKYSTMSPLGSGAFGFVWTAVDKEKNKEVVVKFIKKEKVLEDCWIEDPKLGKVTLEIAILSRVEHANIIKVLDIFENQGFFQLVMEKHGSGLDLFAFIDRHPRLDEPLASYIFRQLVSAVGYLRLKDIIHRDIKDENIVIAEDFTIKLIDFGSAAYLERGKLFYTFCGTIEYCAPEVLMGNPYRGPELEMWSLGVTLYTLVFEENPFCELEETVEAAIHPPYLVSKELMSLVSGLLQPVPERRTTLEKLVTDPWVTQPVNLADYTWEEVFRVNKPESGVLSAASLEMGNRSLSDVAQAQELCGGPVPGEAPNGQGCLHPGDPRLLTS

Structure (SMILES) | IC50 [1] [nM] | further results
Cc1nn(C(C)C)c(C)c1-c1cnn2ccc(-n3cc(C(=O)O)c(C(F)(F)F)n3)cc12 [Cpd 80, 1-[3-(1-isopropyl-3,5-dimethyl-pyrazol-4-yl)pyrazolo[1,5-a]pyridin-5-yl]-3-(trifluoromethyl)pyrazole-4-carboxylic acid] | 10 to 100 | 
CN(C)C(=N)N=C(N)N [metformin, reference compound] |  | Bodyweight change (% change from baseline) [2, 3]: 1.0%; HbA1c change (% change from baseline) [2, 3]: −2.8%; Bodyweight change (% change from baseline) [2, 4]: −0.7%; HbA1c change (% change from baseline) [2, 4]: −12.3%; Bodyweight change (% change from baseline) [2, 5]: −1.3%; HbA1c change (% change from baseline) [2, 5]: −17.2%; Bodyweight change (% change from baseline) [2, 6]: −5.2%; HbA1c change (% change from baseline) [2, 6]: −18.9%; Bodyweight change (% change from baseline) [2, 7]: −6.5%; HbA1c change (% change from baseline) [2, 7]: −24.1%; Bodyweight change (% change from baseline) [2, 8]: −7.3%; HbA1c change (% change from baseline) [2, 8]: −23.5%; Bodyweight change (% change from baseline) [2, 9]: −6.3%; HbA1c change (% change from baseline) [2, 9]: −30.1%; Bodyweight change (% change from baseline) [2, 10]: −6.1%; HbA1c change (% change from baseline) [2, 10]: −28.6%
CCOC(=O)c1sc(-c2ccn3ncc(-c4c(C)nn(C)c4C)c3c2)nc1OCC [Cpd 88, ethyl 4-ethoxy-2-[3-(1,3,5-trimethylpyrazol-4-yl)pyrazolo[1,5-a]pyridin-5-yl]thiazole-5-carboxylate] | 100 to 500 | 
Cc1noc(C)c1-c1cnn2ccc(-n3cc(C(=O)O)cn3)cc12 [Cpd 47, 1-[3-(3,5-dimethylisoxazol-4-yl)pyrazolo[1,5-a]pyridin-5-yl]pyrazole-4-carboxylic acid] | 10 to 100 | 
CCOC(=O)c1sc(-c2ccn3ncc(-c4c(C)nn(C)c4C)c3c2)nc1OC [Cpd 87, ethyl 4-methoxy-2-[3-(1,3,5-trimethylpyrazol-4-yl)pyrazolo[1,5-a]pyridin-5-yl]thiazole-5-carboxylate] | 100 to 500 | 
Cc1nn(C(C)C)c(C)c1-c1cnn2ccc(-n3cc(C(=O)O)cn3)cc12 [Cpd 52, 1-[3-(1-isopropyl-3,5-dimethyl-pyrazol-4-yl)pyrazolo[1,5-a]pyridin-5-yl]pyrazole-4-carboxylic acid] | 0.01 to 10 | 
Cc1c(-c2cnn3ccc(-c4nc(C(=O)O)co4)cc23)c(C(F)(F)F)nn1C [Cpd 57, 2-[3-[1,5-dimethyl-3-(trifluoromethyl)pyrazol-4-yl]pyrazolo[1,5-a]pyridin-5-yl]oxazole-4-carboxylic acid] | 0.01 to 10 | 
Cc1nn(C)c(C)c1-c1cnn2ccc(-c3cc(C(=O)OCOC(=O)C(C)(C)C)co3)cc12 [Cpd 13, 2,2-dimethylpropanoyloxymethyl 5-[3-(1,3,5-trimethylpyrazol-4-yl)pyrazolo[1,5-a]pyridin-5-yl]furan-3-carboxylate] | 100 to 500 | 
COCCOc1nc(-c2ccn3ncc(-c4c(C)noc4C)c3c2)sc1C(=O)O [Cpd 59, 2-[3-(3,5-dimethylisoxazol-4-yl)pyrazolo[1,5-a]pyridin-5-yl]-4-(2-methoxyethoxy) thiazole-5-carboxylic acid] | 0.01 to 10 | 
Cc1nn(CC(F)(F)F)c(C)c1-c1cnn2ccc(-c3cc(C(=O)O)c(C4=CCOCC4)o3)cc12 [Cpd 53, 2-(3,6-dihydro-2H-pyran-4-yl)-5-[3-[3,5-dimethyl-1-(2,2,2-trifluoroethyl)pyrazol-4-yl]pyrazolo[1,5-a]pyridin-5-yl]furan-3-carboxylic acid] | 0.01 to 10 | 
Cc1nn(C(F)F)c(C)c1-c1cnn2ccc(-c3ccc(C(=O)O)o3)cc12 [Cpd 51, 5-[3-[1-(difluoromethyl)-3,5-dimethyl-pyrazol-4-yl]pyrazolo[1,5-a]pyridin-5-yl]furan-2-carboxylic acid] | 0.01 to 10 | 
Cc1nn(C(F)F)c(C)c1-c1cnn2ccc(-c3cc(C(=O)O)c(C4=CCOCC4)o3)cc12 [Cpd 54, 5-[3-[1-(difluoromethyl)-3,5-dimethyl-pyrazol-4-yl]pyrazolo[1,5-a]pyridin-5-yl]-2-(3,6-dihydro-2H-pyran-4-yl)furan-3-carboxylic acid] | 0.01 to 10 | 
CCn1nc(C)c(-c2cnn3ccc(-n4cc(C(=O)O)c(OC)n4)cc23)c1C [Cpd 75, 1-[3-(1-ethyl-3,5-dimethyl-pyrazol-4-yl)pyrazolo[1,5-a]pyridin-5-yl]-3-methoxy-pyrazole-4-carboxylic acid] | 0.01 to 10 | 
Cc1noc(C)c1-c1cnn2ccc(-c3nc(OC(C)C)c(C(=O)O)s3)cc12 [Cpd 56, 2-[3-(3,5-dimethylisoxazol-4-yl)pyrazolo[1,5-a]pyridin-5-yl]-4-isopropoxy-thiazole-5-carboxylic acid] | 0.01 to 10 | 
COc1nn(-c2ccn3ncc(-c4c(C)noc4C)c3c2)cc1C(=O)O [Cpd 63, 1-[3-(3,5-dimethylisoxazol-4-yl)pyrazolo[1,5-a]pyridin-5-yl]-3-methoxy-pyrazole-4-carboxylic acid] | 10 to 100 | 
Cc1noc(C)c1-c1cnn2ccc(-c3nc(OC(F)F)c(C(=O)O)s3)cc12 [Cpd 61, 4-(difluoromethoxy)-2-[3-(3,5-dimethylisoxazol-4-yl)pyrazolo[1,5-a]pyridin-5-yl]thiazole-5-carboxylic acid] | 0.01 to 10 | 

Continued, in another order:

IC50 [1] [nM] | Structure (SMILES) | further results
0.01 to 10 | Cc1c(-c2cnn3ccc(-c4cc(C(=O)O)co4)cc23)cnn1C [Cpd 12, 5-[3-(1,5-dimethylpyrazol-4-yl)pyrazolo[1,5-a]pyridin-5-yl]furan-3-carboxylic acid] | 
0.01 to 10 | Cc1nn(CC(F)(F)F)c(C)c1-c1cnn2ccc(-c3cc(C(=O)O)c(C4CCOCC4)o3)cc12 [Cpd 55, 5-[3-[3,5-dimethyl-1-(2,2,2-trifluoroethyl)pyrazol-4-yl]pyrazolo[1,5-a]pyridin-5-yl]-2-tetrahydropyran-4-yl-furan-3-carboxylic acid] | 
0.01 to 10 | Cc1noc(C)c1-c1cnn2ccc(-c3nc(OC4COC4)c(C(=O)O)s3)cc12 [Cpd 58, 2-[3-(3,5-dimethylisoxazol-4-yl)pyrazolo[1,5-a]pyridin-5-yl]-4-(oxetan-3-yloxy) thiazole-5-carboxylic acid] | 
0.01 to 10 | Cc1nn(C(C)C)c(C)c1-c1cnn2ccc(-c3ccc(C(=O)O)o3)cc12 [Cpd 48, 5-[3-(1-isopropyl-3,5-dimethyl-pyrazol-4-yl)pyrazolo[1,5-a]pyridin-5-yl]furan-2-carboxylic acid] | 
0.01 to 10 | CCOCCOc1nc(-c2ccn3ncc(-c4c(C)noc4C)c3c2)sc1C(=O)O [Cpd 60, 2-[3-(3,5-dimethylisoxazol-4-yl)pyrazolo[1,5-a]pyridin-5-yl]-4-(2-ethoxyethoxy) thiazole-5-carboxylic acid] | 
0.01 to 10 | Cn1cc(-c2cnn3ccc(-c4cc(C(=O)O)co4)cc23)c(C(F)(F)F)n1 [Cpd 10, 5-[3-[1-methyl-3-(trifluoromethyl)pyrazol-4-yl]pyrazolo[1,5-a]pyridin-5-yl]furan-3-carboxylic acid] | 
0.01 to 10 | Cc1nn(C(F)F)c(C)c1-c1cnn2ccc(-c3ncc(C(=O)O)o3)cc12 [Cpd 49, 2-[3-[1-(difluoromethyl)-3,5-dimethyl-pyrazol-4-yl]pyrazolo[1,5-a]pyridin-5-yl]oxazole-5-carboxylic acid] | 
0.01 to 10 | Cc1nn(C)c(C)c1-c1cnn2ccc(-n3cc(C(=O)O)cn3)cc12 [Cpd 73, 1-[3-(1,3,5-trimethylpyrazol-4-yl)pyrazolo[1,5-a]pyridin-5-yl]pyrazole-4-carboxylic acid] | 
0.01 to 10 | Cc1nn(CC(F)(F)F)c(C)c1-c1cnn2ccc(-n3cc(C(=O)O)c(C(F)(F)F)n3)cc12 [Cpd 81, 1-[3-[3,5-dimethyl-1-(2,2,2-trifluoroethyl)pyrazol-4-yl]pyrazolo[1,5-a]pyridin-5-yl]-3-(trifluoromethyl)pyrazole-4-carboxylic acid] | 
0.01 to 10 | COc1nn(-c2ccn3ncc(-c4c(C)nn(C(F)F)c4C)c3c2)cc1C(N)=O [Cpd 83, 1-[3-[1-(difluoromethyl)-3,5-dimethyl-pyrazol-4-yl]pyrazolo[1,5-a]pyridin-5-yl]-3-methoxy-pyrazole-4-carboxamide] | 

Source: patent US20220144823A1, “PYRAZOLOPYRIDINE DERIVATIVES AS INHIBITORS OF PASK” (Galapagos NV, priority 2019, published 2022)
